Data on 3 molecules can be found in ChEMBL document CHEMBL3352346, “Optimization of sphingosine-1-phosphate-1 receptor agonists: effects of acidic, basic, and zwitterionic chemotypes on pharmacokinetic and pharmacodynamic profiles” (J Med Chem, 2014).

pEC50, pIC50: −log10 of the molar value. A value given as a limit tells only on which side of the number the result lay.

In general, pEC50 refers to the negative decadic logarithm of the EC50, by convention in mol/L. What is called half-life is how long it takes for the measured level to halve. Usually bioavailability stands for the share of a dose that reaches the circulation, judged against a reference dose that is usually intravenous. A word on the pIC50: it is the negative decadic logarithm of the IC50, by convention in mol/L. The term fraction unbound denotes the share of the substance not bound to proteins or other matrix. Broadly, the solubility is how much of the substance goes into solution per volume.

Series [1] addresses Sphingosine 1-phosphate receptor 1 (Homo sapiens, UniProt P21453). Nature of the series: Agonist activity at human S1P1R expressed in RH7777 membranes assessed as [35S]GTPgammaS binding after 30 mins. Format: functional, cell membranes. Background: GTPγS resists hydrolysis and so accumulates on activated G proteins.
The target in series [2] is Sphingosine 1-phosphate receptor 3 (Homo sapiens, UniProt Q99500). Nature of the series: Agonist activity at human S1P3R expressed in RBL membranes assessed as [35S]GTPgammaS binding after 30 mins. Format: functional, cell membranes.
Sphingosine 1-phosphate receptor 3, sequence (Q99500 whole entry): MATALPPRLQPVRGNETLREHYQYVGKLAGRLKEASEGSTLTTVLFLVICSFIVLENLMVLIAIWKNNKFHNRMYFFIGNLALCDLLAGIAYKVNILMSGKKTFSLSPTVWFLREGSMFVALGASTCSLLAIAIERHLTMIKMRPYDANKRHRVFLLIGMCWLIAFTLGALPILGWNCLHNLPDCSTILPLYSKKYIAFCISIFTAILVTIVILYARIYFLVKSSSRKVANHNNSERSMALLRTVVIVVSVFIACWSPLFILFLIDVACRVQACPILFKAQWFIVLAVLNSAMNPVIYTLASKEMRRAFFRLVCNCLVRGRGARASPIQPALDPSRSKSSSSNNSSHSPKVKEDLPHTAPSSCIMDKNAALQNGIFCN
The test system of another series is Mus musculus. The experiment in a line: Volume of distribution at steady state in po dosed C57BL/6 mouse at 1 mg/kg, iv using DMSO/1% methylcellulose 1:99 (w/v). Format: ADME, organism-based. The arrangement: dose 1 mg/kg, route oral. As to conditions: in vivo.
Series [3] in a line: Half life in po dosed C57BL/6 mouse at 1 mg/kg, iv using DMSO/1% methylcellulose 1:99 (w/v). It counts as ADME, organism-based. Particulars: in vivo. Details: dose 1 mg/kg, route oral.
A short description of series [4]: Oral bioavailability in C57BL/6 mouse at 3 mg/kg using 1% methylcellulose (w/v). It counts as ADME, organism-based. As to conditions: in vivo.
In series [5] the test system is Rattus norvegicus. The experiment in a line: Reduction of lymphocyte count in rat at 1 mg/kg, po measured at 4 hrs relative to control. It counts as functional. The arrangement: scale not given: the % may be the effect or the level left.
The subject of series [6] is Rattus norvegicus. Nature of the series: Reduction of lymphocyte count in rat at 1 mg/kg, po measured at 8 hrs relative to control. Format: functional. The arrangement: scale not given: the % may be the effect or the level left.
The test system of series [7] is Rattus norvegicus. The experiment in a line: Reduction of lymphocyte count in rat at 1 mg/kg, po measured at 24 hrs relative to control. Format: functional. The arrangement: scale not given: the % may be the effect or the level left.
The target in a further series is T1, Cytochrome P450 1A2 (Homo sapiens, UniProt P05177).
T1 sequence (P05177 whole entry): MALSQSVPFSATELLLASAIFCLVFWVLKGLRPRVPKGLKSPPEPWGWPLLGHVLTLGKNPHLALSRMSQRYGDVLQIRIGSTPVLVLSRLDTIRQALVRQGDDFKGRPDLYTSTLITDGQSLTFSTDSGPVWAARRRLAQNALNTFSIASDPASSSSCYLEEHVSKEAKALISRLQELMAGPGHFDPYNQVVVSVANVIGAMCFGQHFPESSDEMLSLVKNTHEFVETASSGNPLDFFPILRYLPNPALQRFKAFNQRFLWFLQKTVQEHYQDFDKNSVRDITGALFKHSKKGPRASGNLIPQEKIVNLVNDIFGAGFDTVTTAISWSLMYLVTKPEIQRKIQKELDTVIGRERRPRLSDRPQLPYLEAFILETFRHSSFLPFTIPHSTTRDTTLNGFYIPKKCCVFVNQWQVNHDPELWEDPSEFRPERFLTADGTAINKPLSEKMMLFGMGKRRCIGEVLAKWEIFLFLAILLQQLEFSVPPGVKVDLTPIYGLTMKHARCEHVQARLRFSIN
Nature of the series: Inhibition of CYP1A2 (unknown origin). Format: ADME.

In another series the target is Cytochrome P450 2C9 (Homo sapiens, UniProt P11712). The experiment in a line: Inhibition of CYP2C9 (unknown origin). It counts as ADME.
Cytochrome P450 2C9, sequence (P11712 whole entry): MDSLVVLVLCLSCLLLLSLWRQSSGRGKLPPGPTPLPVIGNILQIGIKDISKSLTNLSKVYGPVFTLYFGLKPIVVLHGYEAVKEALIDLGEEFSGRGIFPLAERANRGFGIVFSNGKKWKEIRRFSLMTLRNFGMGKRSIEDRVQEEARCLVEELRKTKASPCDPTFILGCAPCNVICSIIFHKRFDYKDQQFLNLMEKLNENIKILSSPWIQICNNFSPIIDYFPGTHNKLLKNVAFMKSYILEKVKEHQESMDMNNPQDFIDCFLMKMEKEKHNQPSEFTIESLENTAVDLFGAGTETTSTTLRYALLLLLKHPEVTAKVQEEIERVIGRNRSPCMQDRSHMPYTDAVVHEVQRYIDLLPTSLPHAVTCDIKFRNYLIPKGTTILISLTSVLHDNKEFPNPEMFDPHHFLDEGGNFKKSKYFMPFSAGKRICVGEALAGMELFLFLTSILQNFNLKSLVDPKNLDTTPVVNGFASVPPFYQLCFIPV
For the next series, the target named is Cytochrome P450 2C19 (Homo sapiens, UniProt P33261). Nature of the series: Inhibition of CYP2C19 (unknown origin). Format: ADME.
Cytochrome P450 2C19, sequence (P33261 whole entry): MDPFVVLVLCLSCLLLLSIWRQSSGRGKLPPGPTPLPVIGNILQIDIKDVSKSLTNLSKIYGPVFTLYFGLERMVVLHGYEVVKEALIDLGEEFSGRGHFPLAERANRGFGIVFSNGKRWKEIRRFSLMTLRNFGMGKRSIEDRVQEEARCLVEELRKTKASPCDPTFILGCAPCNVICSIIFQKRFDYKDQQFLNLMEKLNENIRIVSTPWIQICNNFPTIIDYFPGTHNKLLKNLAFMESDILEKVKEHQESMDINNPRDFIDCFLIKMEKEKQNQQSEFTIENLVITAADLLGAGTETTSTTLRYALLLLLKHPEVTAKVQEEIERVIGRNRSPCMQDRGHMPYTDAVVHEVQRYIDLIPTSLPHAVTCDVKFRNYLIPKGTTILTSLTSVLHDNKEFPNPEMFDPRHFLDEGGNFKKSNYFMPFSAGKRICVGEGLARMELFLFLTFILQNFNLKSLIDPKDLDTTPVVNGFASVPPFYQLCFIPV
For a further series, the target named is Cytochrome P450 2D6 (Homo sapiens, UniProt P10635). The experiment in a line: Inhibition of CYP2D6 (unknown origin). Format: ADME.
Cytochrome P450 2D6, sequence (P10635 whole entry): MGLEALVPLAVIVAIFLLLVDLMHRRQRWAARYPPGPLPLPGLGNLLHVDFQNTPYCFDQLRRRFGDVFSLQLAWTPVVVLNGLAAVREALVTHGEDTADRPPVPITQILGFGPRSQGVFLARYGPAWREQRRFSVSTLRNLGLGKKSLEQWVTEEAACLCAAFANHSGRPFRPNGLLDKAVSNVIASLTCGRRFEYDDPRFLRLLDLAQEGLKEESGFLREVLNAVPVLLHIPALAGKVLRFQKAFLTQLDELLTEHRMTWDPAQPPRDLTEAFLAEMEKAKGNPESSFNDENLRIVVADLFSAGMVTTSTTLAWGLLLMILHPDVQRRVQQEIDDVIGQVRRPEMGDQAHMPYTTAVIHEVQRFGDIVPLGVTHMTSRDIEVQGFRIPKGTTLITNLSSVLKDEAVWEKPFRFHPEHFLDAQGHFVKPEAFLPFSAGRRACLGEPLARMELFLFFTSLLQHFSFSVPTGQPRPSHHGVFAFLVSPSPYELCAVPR
Series [8] is described as follows: Fraction unbound in dog blood. Format: ADME, tissue-based, Canis lupus familiaris.
The nature of series [9]: Fraction unbound in human blood. It counts as ADME, tissue-based.
The nature of series [10]: Intrinsic clearance in dog hepatocyte. Format: ADME, cell-based, Canis lupus familiaris. Particulars: hepatocytes.
Series [11] has as its system Rattus norvegicus. The experiment in a line: Reduction in lymphocyte level in po dosed male Lewis rat. Format: functional, organism-based.
The subject of series [12] is Rattus norvegicus. Nature of the series: (§1) Oral bioavailability in CD rat at 3 mg/kg using Methylcellulose(aq), 1% (w/v) suspension. Format: ADME, organism-based. As to conditions: in vivo.
Series [13] concerns Canis familiaris. Nature of the series: (§2) Volume of distribution at steady state in Beagle dog at 1 mg/kg, iv or 2 mg/kg, po using DMSO/10%(w/v) Kleptose, 0.9% saline(aq) (2%/98%). Format: ADME, organism-based, Canis lupus familiaris. As to conditions: in vivo.
Series [14] has as its system Canis familiaris. The experiment in a line: (§3) Half life in Beagle dog at 1 mg/kg, iv or 2 mg/kg, po using DMSO/10%(w/v) Kleptose, 0.9% saline(aq) (2%/98%). It counts as ADME, organism-based, Canis lupus familiaris. As to conditions: in vivo.
The subject of series [15] is Canis familiaris. The experiment in a line: (§4) Oral bioavailability in Beagle dog at 2 mg/kg using Methylcellulose(aq), 1% (w/v) suspension. Format: ADME, organism-based, Canis lupus familiaris. As to conditions: in vivo.
A short description of series [16]: Clearance in CD rat at 1 mg/kg, iv or 3 mg/kg, po using DMSO/10%(w/v) Kleptose, 0.9% saline(aq) (5%/95%). As to conditions: in vivo. It counts as ADME, organism-based.
A short description of series [17]: Volume of distribution at steady state in CD rat at 1 mg/kg, iv or 3 mg/kg, po using DMSO/10%(w/v) Kleptose, 0.9% saline(aq) (5%/95%). It counts as ADME, organism-based. As to conditions: in vivo, read-out: Vdss.
Series [18] can be described thus: Half life in CD rat at 1 mg/kg, iv or 3 mg/kg, po using DMSO/10%(w/v) Kleptose, 0.9% saline(aq) (5%/95%). It counts as ADME, organism-based. Particulars: in vivo.
The target of a further series is Albumin (Homo sapiens, UniProt P02768). Nature of the series: Fraction unbound as a percentage in human serum albumin. Format: ADME.
Albumin, sequence (P02768 whole entry): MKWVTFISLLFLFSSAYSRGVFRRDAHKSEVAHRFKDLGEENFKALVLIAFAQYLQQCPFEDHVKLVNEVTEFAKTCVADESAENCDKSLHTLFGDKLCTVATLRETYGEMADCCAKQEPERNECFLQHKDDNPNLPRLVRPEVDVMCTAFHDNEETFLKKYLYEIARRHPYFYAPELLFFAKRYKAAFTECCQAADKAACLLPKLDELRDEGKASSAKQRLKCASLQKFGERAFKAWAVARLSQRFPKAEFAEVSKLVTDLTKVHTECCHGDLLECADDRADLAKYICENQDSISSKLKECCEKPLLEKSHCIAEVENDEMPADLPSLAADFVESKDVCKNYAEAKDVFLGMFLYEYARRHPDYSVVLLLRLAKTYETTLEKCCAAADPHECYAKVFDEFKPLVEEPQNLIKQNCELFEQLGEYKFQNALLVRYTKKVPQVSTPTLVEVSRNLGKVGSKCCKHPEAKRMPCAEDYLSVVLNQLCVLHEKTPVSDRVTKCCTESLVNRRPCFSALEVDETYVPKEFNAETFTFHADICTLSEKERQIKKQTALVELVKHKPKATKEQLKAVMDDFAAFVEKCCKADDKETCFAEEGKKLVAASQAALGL
A short description of series [19]: Solubility in fed-state simulated intestinal fluid at pH 5 after 24 hrs. Format: ADME.
Series [20] is described as follows: Solubility in fed-state simulated intestinal fluid at pH 6.5 after 24 hrs. Format: ADME.
The nature of series [21]: Inhibition of CYP3A4VG (unknown origin). It counts as ADME, Homo sapiens.
Series [22] is described as follows: Inhibition of CYP3A4VR (unknown origin). It counts as ADME, Homo sapiens.
Series [23] can be described thus: Permeability in MDCK cells. Format: ADME, cell-based, Canis lupus familiaris. Particulars: dog, read-out: permeability.
The nature of series [24]: Fraction unbound in rat blood. It counts as ADME, tissue-based.
A further series relates to Hepatocyte. The experiment in a line: Intrinsic clearance in rat hepatocyte. Particulars: hepatocytes. It counts as ADME, cell-based.
A short description of series [25]: Fraction unbound in cynomolgus monkey blood. It counts as ADME, tissue-based, Macaca fascicularis.
Series [26] can be described thus: Intrinsic clearance in cynomolgus monkey hepatocyte. Format: ADME, cell-based, Macaca fascicularis. As to conditions: hepatocytes, read-out: CLH.
Series [27] in a line: Clearance in CD rat at 1 mg/kg, iv or 3 mg/kg, po using DMSO/10%(w/v) Kleptose, 0.9% saline(aq) (2%/98%). Format: ADME, organism-based. As to conditions: in vivo.
Series [28] can be described thus: Volume of distribution at steady state in CD rat at 1 mg/kg, iv or 3 mg/kg, po using DMSO/10%(w/v) Kleptose, 0.9% saline(aq) (2%/98%). Format: ADME, organism-based. Particulars: in vivo, read-out: Vdss.
Series [29] in a line: Half life in CD rat at 1 mg/kg, iv or 3 mg/kg, po using DMSO/10%(w/v) Kleptose, 0.9% saline(aq) (2%/98%). It counts as ADME, organism-based. Particulars: in vivo.
A short description of series [30]: as §1. It counts as ADME, organism-based. As to conditions: CD, in vivo.
Series [31] can be described thus: Clearance in Beagle dog at 1 mg/kg, iv or 2 mg/kg, po using DMSO/10%(w/v) Kleptose, 0.9% saline(aq) (2%/98%). It counts as ADME, organism-based, Canis lupus familiaris. As to conditions: in vivo.
The nature of series [32]: as §2. As to conditions: beagle, in vivo, read-out: Vdss. Format: ADME, organism-based, Canis lupus familiaris.
A short description of series [33]: as §3. As to conditions: beagle, in vivo. Format: ADME, organism-based, Canis lupus familiaris.
Series [34] can be described thus: as §4. Particulars: beagle, in vivo. Format: ADME, organism-based, Canis lupus familiaris.
Series [35] can be described thus: Clearance in cynomolgus monkey at 1 mg/kg, iv or 3 mg/kg, po using DMSO/10%(w/v) Kleptose, 0.9% saline(aq) (2%/98%). It counts as ADME, organism-based, Macaca fascicularis. Particulars: in vivo.
Series [36] in a line: Volume of distribution at steady state in cynomolgus monkey at 1 mg/kg, iv or 3 mg/kg, po using DMSO/10%(w/v) Kleptose, 0.9% saline(aq) (2%/98%). Particulars: in vivo, read-out: Vdss. Format: ADME, organism-based, Macaca fascicularis.
A short description of series [37]: Half life in cynomolgus monkey at 1 mg/kg, iv or 3 mg/kg, po using DMSO/10%(w/v) Kleptose, 0.9% saline(aq) (2%/98%). It counts as ADME, organism-based, Macaca fascicularis. Particulars: in vivo.
Series [38] is described as follows: Oral bioavailability in cynomolgus monkey at 3 mg/kg using Methylcellulose(aq), 1% (w/v) suspension. It counts as ADME, organism-based, Macaca fascicularis. Particulars: in vivo.

Sphingosine 1-phosphate receptor 1, sequence (P21453 whole entry): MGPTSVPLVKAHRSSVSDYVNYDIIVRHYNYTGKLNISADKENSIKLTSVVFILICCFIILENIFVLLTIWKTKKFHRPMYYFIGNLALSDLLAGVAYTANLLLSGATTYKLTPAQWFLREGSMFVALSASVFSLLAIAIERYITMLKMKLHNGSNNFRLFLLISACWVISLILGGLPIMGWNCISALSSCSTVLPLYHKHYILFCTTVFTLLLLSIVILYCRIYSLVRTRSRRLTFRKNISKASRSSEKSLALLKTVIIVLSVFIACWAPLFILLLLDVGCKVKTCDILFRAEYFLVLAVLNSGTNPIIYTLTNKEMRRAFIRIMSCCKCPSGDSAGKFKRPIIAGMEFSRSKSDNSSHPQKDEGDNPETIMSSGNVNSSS

For `CC(C)Oc1ccc(-c2nc(-c3ccc4c(c3)CCNCC4)no2)cc1C#N`, the pEC50 in [1] is 7.60; in [2], below 4.50. The molecule also returned a Vdss in the series on Mus musculus of 9.1 L/kg. Further, the half-life in [3] is 6.9 h. This molecule returned a bioavailability in series [4] of 63%. For the same molecule, the values for the Activity in the series with Rattus norvegicus [5], in the series on Rattus norvegicus [6] and in the series on Rattus norvegicus [7] were 75%, 82% and 6%, respectively.

With `CC(C)Oc1ncc(-c2nc(-c3cccc4c3OCCNC4CCCC(=O)O)no2)cc1Cl` (single isomer, unassigned; enantiomer 1), the pEC50 was 7.40 in [1] and 4.70 in series [2]. The pIC50 on Cytochrome P450 1A2 is below 4.30; against Cytochrome P450 2C9, below 4.30; against Cytochrome P450 2C19, below 4.30; against Cytochrome P450 2D6, below 4.30; in the series on Rattus norvegicus [11], 7.04. For the same molecule, the Fu amounted to 0.01 in series [8] and 0.014 in [9]. The molecule also registered a CLH in [10] of 4 mL/min/g. The F in the series on Rattus norvegicus [12] was found to be 87%; in the series on Canis familiaris [15], 50%. The same molecule showed a Vdss in the series on Canis familiaris [13] of 1.5 L/kg. This molecule also came in with a t1/2 with Canis familiaris [14] of 0.84 h. In series [16], this molecule yielded a clearance of 1.03 mL/min/kg. Moreover, the Vd in [17] is 0.6 L/kg. Besides, the half-life in series [18] is 6.4 h.

As to `CC(C)Oc1ccc(-c2nc(-c3cccc4c3cnn4CCC(=O)[O-])no2)cc1Cl.[Na+]`, the pEC50 in series [1] is 7.70; in [2], below 4.50. In addition, the fraction unbound on Albumin was determined as 0.012; in series [24] it was 0.0017; in [8], 0.002; in series [9], 0.001; in series [25], 0.0018. Moreover, the values for the solubility at 24 h in series [19] and in series [20] were 44 µg/mL and 11 µg/mL, respectively. For the same molecule, the pIC50 was below 4.30 against Cytochrome P450 1A2; 5.15 against Cytochrome P450 2C9; below 4.30 against Cytochrome P450 2C19; below 4.30 against Cytochrome P450 2D6; 4.55 in series [21]; 4.60 in [22]. Further, the negative logarithm of the IC50 (pIC50) in the series with Rattus norvegicus [11] (Rattus norvegicus, Lewis) is 6.93. Also, in series [23], the Papp was 20.3 ×10⁻⁶ cm/s. Moreover, the values for the CLH (with Hepatocyte; in [10]) were below 0.9 mL/min/g and below 1.7 mL/min/g, respectively. In series [26], the CLint scaled was below 0.9 mL/min/kg. Also, the clearance amounted to 2 mL/min/kg in [27], 4 mL/min/kg in series [31] and 3 mL/min/kg in series [35]. Besides, the values for the Vd in series [28], in series [32] and in series [36] were 1 L/kg, 1 L/kg and 0.4 L/kg, respectively. The half-life in [29] is 7.5 h; in series [33], 3.9 h; in series [37], 1.2 h. Moreover, the bioavailability stood at 96% in series [30], 94% in series [34] and 59% in series [38].
